Assay results reported in ChEMBL document CHEMBL1143629, “Synthesis and antibacterial activity of 1-(2-fluorovinyl)-7-substituted-4-quinolone-3-carboxylic acid derivatives, conformationally restricted analogues of fleroxacin” (J Med Chem, 2005).
In brackets after ≈: the same amount, converted by molar mass.

Columns and labels:
Streptococcus pneumoniae = assay: In vitro minimum inhibitory concentration against Streptococcus pneumoniae type III; type: functional
Escherichia coli = assay: In vitro minimum inhibitory concentration against Escherichia coli NIHJ JC-2; type: functional
Staphylococcus aureus = assay: In vitro minimum inhibitory concentration against Staphylococcus aureus Smith; type: functional
Pseudomonas aeruginosa = assay: In vitro minimum inhibitory concentration against Pseudomonas aeruginosa IID1210; type: functional
DNA gyrase = DNA gyrase (Staphylococcus aureus, UniProt P0A0K8+P20831); assay: Inhibitory concentration against DNA gyrase of Staphylococcus aureus; type: protein-complex assay

Structure (SMILES) | MIC (Streptococcus pneumoniae) | MIC (Escherichia coli) | MIC (Staphylococcus aureus) | MIC (Pseudomonas aeruginosa) | IC50 (DNA gyrase)
NC1CCN(c2c(F)cc3c(=O)c(C(=O)O)cn(/C=C/F)c3c2F)C1 (centres undefined) | 12.5 µg/mL (≈ 35.4 µM) | 0.2 µg/mL (≈ 0.566 µM) | 3.13 µg/mL (≈ 8.86 µM) | 1.56 µg/mL (≈ 4.42 µM) | –
NC1CCN(c2cc3c(cc2F)c(=O)c(C(=O)O)cn3/C=C\F)C1 (centres undefined) | 3.13 µg/mL (≈ 9.33 µM) | 0.05 µg/mL (≈ 0.149 µM) | 0.39 µg/mL (≈ 1.16 µM) | 0.78 µg/mL (≈ 2.33 µM) | –
NC1CCN(c2c(F)cc3c(=O)c(C(=O)O)cn(/C=C\F)c3c2F)C1 (centres undefined) | 0.78 µg/mL (≈ 2.21 µM) | 0.05 µg/mL (≈ 0.142 µM) | 0.2 µg/mL (≈ 0.566 µM) | 0.39 µg/mL (≈ 1.1 µM) | –
CN1CCN(c2c(F)cc3c(=O)c(C(=O)O)cn(/C=C\F)c3c2F)CC1 | 3.13 µg/mL (≈ 8.52 µM) | 0.025 µg/mL (≈ 0.0681 µM) | 0.39 µg/mL (≈ 1.06 µM) | 1.56 µg/mL (≈ 4.25 µM) | 197 µM
CN1CCN(c2c(F)cc3c(=O)c(C(=O)O)cn(/C=C/F)c3c2F)CC1 | > 50 µg/mL | 0.39 µg/mL (≈ 1.06 µM) | 12.5 µg/mL (≈ 34 µM) | 12.5 µg/mL (≈ 34 µM) | 1810 µM
NC1CCN(c2cc3c(cc2F)c(=O)c(C(=O)O)cn3/C=C/F)C1 (centres undefined) | 6.25 µg/mL (≈ 18.6 µM) | 0.2 µg/mL (≈ 0.596 µM) | 1.56 µg/mL (≈ 4.65 µM) | 3.13 µg/mL (≈ 9.33 µM) | –
COc1c(N2CCN(C)CC2)c(F)cc2c(=O)c(C(=O)O)cn(/C=C\F)c12 | 3.13 µg/mL (≈ 8.25 µM) | 0.025 µg/mL (≈ 0.0659 µM) | 0.39 µg/mL (≈ 1.03 µM) | 3.13 µg/mL (≈ 8.25 µM) | –
CN1CCN(c2c(F)cc3c(=O)c(C(=O)O)cn(CCF)c3c2F)CC1 [FLEROXACIN] | 3.13 µg/mL (≈ 8.47 µM) | 0.025 µg/mL (≈ 0.0677 µM) | 0.39 µg/mL (≈ 1.06 µM) | 1.56 µg/mL (≈ 4.22 µM) | 185 µM
O=C(O)c1cn(C2CC2)c2cc(N3CCNCC3)c(F)cc2c1=O [CIPROFLOXACIN] | 0.78 µg/mL (≈ 2.35 µM) | ≤ 0.0063 µg/mL | 0.2 µg/mL (≈ 0.604 µM) | 0.2 µg/mL (≈ 0.604 µM) | –

Results, then the compound that gave them:

MIC (Streptococcus pneumoniae) | MIC (Escherichia coli) | MIC (Staphylococcus aureus) | MIC (Pseudomonas aeruginosa) | IC50 (DNA gyrase) | Structure (SMILES)
12.5 µg/mL (≈ 34.2 µM) | 0.1 µg/mL (≈ 0.274 µM) | 6.25 µg/mL (≈ 17.1 µM) | 6.25 µg/mL (≈ 17.1 µM) | – | COc1c(N2CCC(N)C2)c(F)cc2c(=O)c(C(=O)O)cn(/C=C/F)c12 (centres undefined)
100 µg/mL (≈ 286 µM) | 0.2 µg/mL (≈ 0.573 µM) | 3.13 µg/mL (≈ 8.96 µM) | 6.25 µg/mL (≈ 17.9 µM) | – | CN1CCN(c2cc3c(cc2F)c(=O)c(C(=O)O)cn3/C=C/F)CC1
1.56 µg/mL (≈ 4.27 µM) | 0.0125 µg/mL (≈ 0.0342 µM) | 0.39 µg/mL (≈ 1.07 µM) | 1.56 µg/mL (≈ 4.27 µM) | – | COc1c(N2CCC(N)C2)c(F)cc2c(=O)c(C(=O)O)cn(/C=C\F)c12 (centres undefined)
50 µg/mL (≈ 132 µM) | 0.2 µg/mL (≈ 0.527 µM) | 6.25 µg/mL (≈ 16.5 µM) | 25 µg/mL (≈ 65.9 µM) | – | COc1c(N2CCN(C)CC2)c(F)cc2c(=O)c(C(=O)O)cn(/C=C/F)c12
3.13 µg/mL (≈ 8.96 µM) | 0.025 µg/mL (≈ 0.0716 µM) | 0.2 µg/mL (≈ 0.573 µM) | 1.56 µg/mL (≈ 4.47 µM) | – | CN1CCN(c2cc3c(cc2F)c(=O)c(C(=O)O)cn3/C=C\F)CC1
